Experimental data reported in patent publication US6706663B2, “Herbicidal 3-heterocyclic substituted benzisothiazole and benzisoxazole compounds” (Wyeth, priority 2000, dated 2004).

Key:
[1] = system: ZEAMX (Corn, Field); assay: Postemergence herbicidal evaluation; type: in vivo, Zea mays, L.; details: postemergence
How it was run: (§1)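 Seedlings grown about two weeks in flats, sprayed, then kept under standard greenhouse care. Rated visually 4–5 weeks after treatment on a 0–9 scale (stand, vigour, malformation, size, chlorosis, overall appearance) relative to untreated control; repeat tests averaged.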

[2] = system: AMBEL (Ambrosia artemisifolia); assay: Preemergence herbicidal evaluation; type: in vivo, L.; details: rated 4-5 weeks after treatment
How it was run: (§2)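 Applied before emergence as an aqueous acetone spray over seeded soil. Read-out: 0–9 visual rating covering plant stand, vigor, size, chlorosis, malformation and overall appearance compared with control, taken 4–5 weeks after spraying.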

[3] = system: CHEAL (Chenopodium album); assay: Preemergence herbicidal evaluation; type: in vivo, L.; details: rated 4-5 weeks after treatment
How it was run: as §2

[4] = system: CASOB (Cassia obtusifolia); assay: Preemergence herbicidal evaluation; type: in vivo, L.; details: rated 4-5 weeks after treatment
How it was run: as §2

[5] = system: AMBEL (Ambrosia artemisifolia); assay: Postemergence herbicidal evaluation; type: in vivo, L.; details: postemergence
How it was run: as §1

[6] = system: CHEAL (Chenopodium album); assay: Postemergence herbicidal evaluation; type: in vivo, L.; details: postemergence
How it was run: as §1

[7] = system: CASOB (Cassia obtusifolia); assay: Postemergence herbicidal evaluation; type: in vivo, L.; details: postemergence
How it was run: as §1

[8] = system: ORYSAT (Rice, Tebonnet); assay: Postemergence herbicidal evaluation; type: in vivo, Oryza sativa, (L.) Tebonnet; details: postemergence
How it was run: as §1

[9] = system: IPOHE (Ipomoea hederacea); assay: Preemergence herbicidal evaluation; type: in vivo, (L.) Jacq.; details: rated 4-5 weeks after treatment
[10] = system: SAGPY (Sagittaria pygmaea); assay: Flooded paddy, preemergence weed control; type: in vivo, L.; details: rated 3-4 weeks after treatment, 0-9 rating scale
How it was run: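 Under paddy conditions, seeds or vegetative propagules go into the top 0.5 cm of silt loam; the soil is then flooded to 1.5–3 cm and kept so. Treated pots stay in a greenhouse; response is rated 0-9 visually versus control.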

[11] = system: ECHCG (Echinochloa crus-galli); assay: Postemergence herbicidal evaluation; type: in vivo, (L.) Beau; details: postemergence
How it was run: as §1

[12] = system: GALAP (Galium aparine); assay: Postemergence herbicidal evaluation; type: in vivo; details: postemergence
How it was run: as §1

[13] = system: ORYSAT (Rice, Tebonnet); assay: Flooded paddy, post-transplant rice tolerance; type: in vivo, Oryza sativa, (L.) Tebonnet; details: flooded paddy, post-transplant rice, rated 3-4 weeks after treatment, 0-9 rating scale
How it was run: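 Seedlings aged ten days are transplanted in pairs into undrained pots of silt loam, which are then flooded to a depth of 1.5 to 3 cm. After herbicide application the pots are kept in a greenhouse with the flood maintained. Plants are rated 0-9 by visual comparison with controls.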

[14] = system: GLXMAW (Soybean, Williams); assay: Postemergence herbicidal evaluation; type: in vivo, Glycine max, (L.) Merr. cv Williams; details: postemergence
How it was run: as §1

[15] = system: ABUTH (Abutilon theophrasti); assay: Postemergence herbicidal evaluation; type: in vivo, Medic.; details: postemergence
How it was run: as §1

[16] = system: GALAP (Galium aparine); assay: Preemergence herbicidal evaluation; type: in vivo; details: rated 4-5 weeks after treatment
How it was run: as §2

[17] = system: ORYSAT (Rice, Tebonnet); assay: Preemergence herbicidal evaluation; type: in vivo, Oryza sativa, (L.) Tebonnet; details: rated 4-5 weeks after treatment
[18] = system: ABUTH (Abutilon theophrasti); assay: Preemergence herbicidal evaluation; type: in vivo, Medic.; details: rated 4-5 weeks after treatment
[19] = system: TRZAWR (Wheat, Winter, cv Riband); assay: Preemergence herbicidal evaluation; type: in vivo, Triticum aestivum; details: rated 4-5 weeks after treatment
How it was run: as §2

## Cn1c(C(F)(F)F)cc(=O)n(-c2ccc3snc(C4OC(=O)C(C)(C)O4)c3c2)c1=O (stereo not drawn) [Compound 71, 3-[3-(4,4-dimethyl-5-oxo-1,3-dioxolan-2-yl)-1,2-benzisothiazol-5-yl]-1-methyl-6-(trifluoromethyl)uracil]
[1]; rate 0.0320 kg/ha
  ZEAMX herbicidal rating: 4.5
[1]; rate 0.0620 kg/ha
  ZEAMX herbicidal rating: 5.0
[2]; Rate 0.0620 kg/ha
  Preemergence herbicidal rating AMBEL: 8.0
[2]; Rate 0.1250 kg/ha
  Preemergence herbicidal rating AMBEL: 9.0
[2]; Rate 0.2500 kg/ha
  Preemergence herbicidal rating AMBEL: 9.0
[3]; Rate 0.0620 kg/ha
  Preemergence herbicidal rating CHEAL: 9.0
[3]; Rate 0.1250 kg/ha
  Preemergence herbicidal rating CHEAL: 9.0
[3]; Rate 0.2500 kg/ha
  Preemergence herbicidal rating CHEAL: 9.0
[4]; Rate 0.0620 kg/ha
  Preemergence herbicidal rating CASOB: 3.5
[4]; Rate 0.1250 kg/ha
  Preemergence herbicidal rating CASOB: 6.5
[4]; Rate 0.2500 kg/ha
  Preemergence herbicidal rating CASOB: 7.5
[5]; rate 0.0320 kg/ha
  AMBEL herbicidal rating: 7.0
[5]; rate 0.0620 kg/ha
  AMBEL herbicidal rating: 6.0
[6]; rate 0.0320 kg/ha
  CHEAL herbicidal rating: 6.0
[6]; rate 0.0620 kg/ha
  CHEAL herbicidal rating: 9.0
[7]; rate 0.0320 kg/ha
  CASOB herbicidal rating: 0.0
[7]; rate 0.0620 kg/ha
  CASOB herbicidal rating: 2.0
[8]; rate 0.0320 kg/ha
  ORYSAT herbicidal rating: 3.0
[8]; rate 0.0620 kg/ha
  ORYSAT herbicidal rating: 4.5
[9]; Rate 0.0620 kg/ha
  Preemergence herbicidal rating IPOHE: 7.0
[9]; Rate 0.1250 kg/ha
  Preemergence herbicidal rating IPOHE: 9.0
[9]; Rate 0.2500 kg/ha
  Preemergence herbicidal rating IPOHE: 9.0
[10]; rate 0.0080 kg/ha
  herbicidal rating, SAGPY: 0.0
[10]; rate 0.0320 kg/ha
  herbicidal rating, SAGPY: 0.0
[10]; rate 0.1250 kg/ha
  herbicidal rating, SAGPY: 0.0
[11]; rate 0.0320 kg/ha
  ECHCG herbicidal rating: 1.0
[11]; rate 0.0620 kg/ha
  ECHCG herbicidal rating: 3.0
[12]; rate 0.0320 kg/ha
  GALAP herbicidal rating: 2.0
[12]; rate 0.0620 kg/ha
  GALAP herbicidal rating: 7.0
[13]; rate 0.0080 kg/ha
  herbicidal rating, ORYSAT (rice tolerance): 0.0
[13]; rate 0.0320 kg/ha
  herbicidal rating, ORYSAT (rice tolerance): 0.0
[13]; rate 0.1250 kg/ha
  herbicidal rating, ORYSAT (rice tolerance): 0.0
[14]; rate 0.0320 kg/ha
  GLXMAW herbicidal rating: 4.5
[14]; rate 0.0620 kg/ha
  GLXMAW herbicidal rating: 4.5
[15]; rate 0.0320 kg/ha
  ABUTH herbicidal rating: 9.0
[15]; rate 0.0620 kg/ha
  ABUTH herbicidal rating: 9.0
[16]; Rate 0.0620 kg/ha
  Preemergence herbicidal rating GALAP: 6.0
[16]; Rate 0.1250 kg/ha
  Preemergence herbicidal rating GALAP: 9.0
[16]; Rate 0.2500 kg/ha
  Preemergence herbicidal rating GALAP: 9.0
[17]; Rate 0.0620 kg/ha
  Preemergence herbicidal rating ORYSAT: 5.5
[17]; Rate 0.1250 kg/ha
  Preemergence herbicidal rating ORYSAT: 8.0
[17]; Rate 0.2500 kg/ha
  Preemergence herbicidal rating ORYSAT: 8.5
[18]; Rate 0.0620 kg/ha
  Preemergence herbicidal rating ABUTH: 8.0
[18]; Rate 0.1250 kg/ha
  Preemergence herbicidal rating ABUTH: 9.0
[18]; Rate 0.2500 kg/ha
  Preemergence herbicidal rating ABUTH: 9.0
[19]; Rate 0.0620 kg/ha
  Preemergence herbicidal rating TRZAWR: 4.0
[19]; Rate 0.1250 kg/ha
  Preemergence herbicidal rating TRZAWR: 7.0
[19]; Rate 0.2500 kg/ha
  Preemergence herbicidal rating TRZAWR: 8.0

## Cn1c(C(F)(F)F)cc(=O)n(-c2ccc3snc(C4OCC(CCl)O4)c3c2)c1=O (stereo not drawn) [Compound 72, 3-[3-[4-(chloromethyl)-1,3-dioxolan-2-yl]-1,2-benzisothiazol-5-yl]-1-methyl-6-(trifluoromethyl)uracil]
[1]; rate 0.0320 kg/ha
  ZEAMX herbicidal rating: 5.0
[1]; rate 0.0620 kg/ha
  ZEAMX herbicidal rating: 5.0
[2]; Rate 0.0620 kg/ha
  Preemergence herbicidal rating AMBEL: 9.0
[2]; Rate 0.1250 kg/ha
  Preemergence herbicidal rating AMBEL: 9.0
[2]; Rate 0.2500 kg/ha
  Preemergence herbicidal rating AMBEL: 9.0
[3]; Rate 0.0620 kg/ha
  Preemergence herbicidal rating CHEAL: 9.0
[3]; Rate 0.1250 kg/ha
  Preemergence herbicidal rating CHEAL: 9.0
[3]; Rate 0.2500 kg/ha
  Preemergence herbicidal rating CHEAL: 9.0
[4]; Rate 0.0620 kg/ha
  Preemergence herbicidal rating CASOB: 3.0
[4]; Rate 0.1250 kg/ha
  Preemergence herbicidal rating CASOB: 6.5
[4]; Rate 0.2500 kg/ha
  Preemergence herbicidal rating CASOB: 8.0
[5]; rate 0.0320 kg/ha
  AMBEL herbicidal rating: 9.0
[5]; rate 0.0620 kg/ha
  AMBEL herbicidal rating: 9.0
[6]; rate 0.0320 kg/ha
  CHEAL herbicidal rating: 9.0
[6]; rate 0.0620 kg/ha
  CHEAL herbicidal rating: 9.0
[7]; rate 0.0320 kg/ha
  CASOB herbicidal rating: 5.0
[7]; rate 0.0620 kg/ha
  CASOB herbicidal rating: 5.0
[8]; rate 0.0320 kg/ha
  ORYSAT herbicidal rating: 4.0
[8]; rate 0.0620 kg/ha
  ORYSAT herbicidal rating: 4.5
[9]; Rate 0.0620 kg/ha
  Preemergence herbicidal rating IPOHE: 3.5
[9]; Rate 0.1250 kg/ha
  Preemergence herbicidal rating IPOHE: 6.5
[9]; Rate 0.2500 kg/ha
  Preemergence herbicidal rating IPOHE: 8.0
[10]; rate 0.0080 kg/ha
  herbicidal rating, SAGPY: 0.0
[10]; rate 0.0320 kg/ha
  herbicidal rating, SAGPY: 0.0
[10]; rate 0.1250 kg/ha
  herbicidal rating, SAGPY: 8.0
[11]; rate 0.0320 kg/ha
  ECHCG herbicidal rating: 3.0
[11]; rate 0.0620 kg/ha
  ECHCG herbicidal rating: 3.0
[12]; rate 0.0320 kg/ha
  GALAP herbicidal rating: 9.0
[12]; rate 0.0620 kg/ha
  GALAP herbicidal rating: 9.0
[13]; rate 0.0080 kg/ha
  herbicidal rating, ORYSAT (rice tolerance): 0.0
[13]; rate 0.0320 kg/ha
  herbicidal rating, ORYSAT (rice tolerance): 7.0
[13]; rate 0.1250 kg/ha
  herbicidal rating, ORYSAT (rice tolerance): 8.0
[14]; rate 0.0320 kg/ha
  GLXMAW herbicidal rating: 6.5
[14]; rate 0.0620 kg/ha
  GLXMAW herbicidal rating: 8.5
[15]; rate 0.0320 kg/ha
  ABUTH herbicidal rating: 9.0
[15]; rate 0.0620 kg/ha
  ABUTH herbicidal rating: 9.0
[16]; Rate 0.0620 kg/ha
  Preemergence herbicidal rating GALAP: 8.0
[16]; Rate 0.1250 kg/ha
  Preemergence herbicidal rating GALAP: 9.0
[16]; Rate 0.2500 kg/ha
  Preemergence herbicidal rating GALAP: 9.0
[17]; Rate 0.0620 kg/ha
  Preemergence herbicidal rating ORYSAT: 8.5
[17]; Rate 0.1250 kg/ha
  Preemergence herbicidal rating ORYSAT: 8.5
[17]; Rate 0.2500 kg/ha
  Preemergence herbicidal rating ORYSAT: 9.0
[18]; Rate 0.0620 kg/ha
  Preemergence herbicidal rating ABUTH: 9.0
[18]; Rate 0.1250 kg/ha
  Preemergence herbicidal rating ABUTH: 9.0
[18]; Rate 0.2500 kg/ha
  Preemergence herbicidal rating ABUTH: 9.0
[19]; Rate 0.0620 kg/ha
  Preemergence herbicidal rating TRZAWR: 7.0
[19]; Rate 0.1250 kg/ha
  Preemergence herbicidal rating TRZAWR: 9.0
[19]; Rate 0.2500 kg/ha
  Preemergence herbicidal rating TRZAWR: 9.0
